The text below walks through data of PubChem BioAssay AID330 (DTP/NCI, 2004).

This assay relates to P388 leukemia ip, CD2F1 mice, survival T/C. In words: NCI In Vivo Anticancer Drug Screen. Data for tumor model P388 Leukemia (intraperitoneal) in CD2F1 (CDF1) mice. The conditions noted are these: endpoint: median survival time, higher = longer survival. The procedure, abridged:
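Mice carrying the transplanted tumor received test compound or vehicle. Survival was recorded in each group, and the value is the treated-group measurement divided by that of the vehicle-treated control group.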

[1] abbreviates: dose: 50.0 mg/kg/injection, schedule: Q01DX009 (ip), vehicle: Klucel (hydroxypropylcellulose) (HPC).
Where [2] appears, read: dose: 100.0 mg/kg/injection, schedule: Q01DX009 (ip), vehicle: Klucel (hydroxypropylcellulose) (HPC).
Setting [3] is: dose: 200.0 mg/kg/injection, schedule: Q01DX009 (ip), vehicle: Klucel (hydroxypropylcellulose) (HPC).
Where [4] appears, read: dose: 50.0 mg/kg/injection, schedule: Q01DX005 (ip), vehicle: Klucel (hydroxypropylcellulose) (HPC).
Setting [5] is: dose: 100.0 mg/kg/injection, schedule: Q01DX005 (ip), vehicle: Klucel (hydroxypropylcellulose) (HPC).
Setting [6] is: dose: 200.0 mg/kg/injection, schedule: Q01DX005 (ip), vehicle: Klucel (hydroxypropylcellulose) (HPC).
The mark [7] stands for this setting: dose: 50.0 mg/kg/injection, schedule: Q01DX009 (ip), vehicle: saline.
Where [8] appears, read: dose: 100.0 mg/kg/injection, schedule: Q01DX009 (ip), vehicle: saline.
Where [9] appears, read: dose: 200.0 mg/kg/injection, schedule: Q01DX009 (ip), vehicle: saline.
Where [10] appears, read: dose: 50.0 mg/kg/injection, schedule: Q01DX005 (ip), vehicle: saline with Tween-80.
[11] abbreviates: dose: 100.0 mg/kg/injection, schedule: Q01DX005 (ip), vehicle: saline with Tween-80.
[12] abbreviates: dose: 200.0 mg/kg/injection, schedule: Q01DX005 (ip), vehicle: saline with Tween-80.
The mark [13] stands for this setting: dose: 60.0 mg/kg/injection, schedule: Q01DX005 (ip), vehicle: saline with Tween-80.
The mark [14] stands for this setting: dose: 120.0 mg/kg/injection, schedule: Q01DX005 (ip), vehicle: saline with Tween-80.
The mark [15] stands for this setting: dose: 240.0 mg/kg/injection, schedule: Q01DX005 (ip), vehicle: saline with Tween-80.

Several values for one entry are separate records, joined by “and”; a condition that tells them apart may be missing. Equal values may be shown once. Toxic doses and inconclusive results are not listed.

For `COCC#CC(C)(C)OC`, the T/C runs as follows: (dose: 60.0 mg/kg/injection, schedule: Q01DX005 (ip), vehicle: saline) 95 % of control; (dose: 120.0 mg/kg/injection, schedule: Q01DX005 (ip), vehicle: saline) 95 % of control; (dose: 240.0 mg/kg/injection, schedule: Q01DX005 (ip), vehicle: saline) 99 % of control.
Turning to `CCOC(=O)c1c(C)n(O)c2ccc(Cl)cc2c1=O`, the T/C is, setting by setting: under setting [1], 100 % of control; under setting [2], 102 % of control; under setting [3], 104 % of control.
As to `COCN(C)N=Nc1ccc(C(C)=O)cc1`, the T/C is, setting by setting: under setting [4], 100 % of control; under setting [5], 104 % of control; under setting [6], 121 % of control.
Take `c1ccc2c(c1)[nH]c1ccncc12`: the T/C is 95 % of control (dose: 25.0 mg/kg/injection, schedule: Q01DX009 (ip), vehicle: saline with Tween-80) and 95 % of control (dose: 50.0 mg/kg/injection, schedule: Q01DX009 (ip), vehicle: saline with Tween-80).
With `CC(=O)Nc1ccc(OCC(O)CNC(C)C)c(C(C)=O)c1` (stereo not drawn), the T/C is, setting by setting: under setting [7], 101 % of control; under setting [8], 92 % of control; under setting [9], 97 % of control.
Turning to `CC(=O)C1CCN(CN2CCC(C(C)=O)CC2)CC1`, the T/C runs as follows: (dose: 25.0 mg/kg/injection, schedule: Q01DX005 (ip), vehicle: saline) 101 % of control; (dose: 50.0 mg/kg/injection, schedule: Q01DX005 (ip), vehicle: saline) 110 % of control; (dose: 100.0 mg/kg/injection, schedule: Q01DX005 (ip), vehicle: saline) 97 % of control.
As to `Nc1nc(N)c2nc(NCc3ccc(C(=O)NC(CCC(=O)O)C(=O)O)cc3)cnc2n1` (stereo not drawn), the T/C is, setting by setting: under setting [7], 100 % of control; under setting [8], 109 % of control; under setting [9], 113 % of control; (dose: 400.0 mg/kg/injection, schedule: Q01DX009 (ip), vehicle: saline) 95 % of control.
On to `c1ccc(/C(=N\Nc2nc3ccccc3s2)c2ccccn2)cc1`, for which the T/C under setting [10] was 104 % of control, the T/C under setting [11] was 109 % of control and the T/C under setting [12] was 95 % of control.
Turning to `N#CC(=O)Nc1ccc(Cl)c(Cl)c1`, the T/C was 104 % of control (dose: 7.5 mg/kg/injection, schedule: Q01DX005 (ip), vehicle: Klucel (hydroxypropylcellulose) (HPC)); 99 % of control (dose: 15.0 mg/kg/injection, schedule: Q01DX005 (ip), vehicle: Klucel (hydroxypropylcellulose) (HPC)); 100 % of control (dose: 30.0 mg/kg/injection, schedule: Q01DX005 (ip), vehicle: Klucel (hydroxypropylcellulose) (HPC)).
In the case of `CC1=C(C)C(N2CCOCC2)CS(=O)(=O)O1` (stereo not drawn), the T/C by setting is: under setting [4], 109 % of control; under setting [5], 101 % of control.
For `COc1cc(C(N)CCc2ccc3c(c2)OCO3)cc(OC)c1OC` (stereo not drawn), the T/C is, setting by setting: under setting [4], 110 % of control; under setting [5], 98 % of control.
Turning to `N#CCSCC#N`, the T/C under setting [13] is 100 % of control, the T/C under setting [14] was 100 % of control and the T/C under setting [15] was 104 % of control.
In the case of `O=C(NCCCCCCCCCCNC(=O)C12CC3CC(CC(C3)C1)C2)C12CC3CC(CC(C3)C1)C2`, the T/C is 98 % of control (dose: 12.5 mg/kg/injection, schedule: Q01DX005 (ip), vehicle: saline with Tween-80); 96 % of control (dose: 25.0 mg/kg/injection, schedule: Q01DX005 (ip), vehicle: saline with Tween-80); 86 % of control and 91 % of control under setting [10].
Turning to `O=C(CSc1nc2ccccc2[nH]1)NCCO`, the T/C is, setting by setting: under setting [13], 98 % of control; under setting [14], 97 % of control; under setting [15], 100 % of control.
For `CC(=O)OC1CC2C(C)(C)OC3CC(=O)OCC32C2CCC3(C)C(=CCC3c3ccoc3)C12C` (stereo not drawn), the T/C was 108 % of control (dose: 0.5 mg/kg/injection, schedule: Q01DX005 (ip), vehicle: saline + alcohol); 98 % of control (dose: 1.0 mg/kg/injection, schedule: Q01DX005 (ip), vehicle: saline + alcohol); 106 % of control (dose: 2.0 mg/kg/injection, schedule: Q01DX005 (ip), vehicle: saline + alcohol); 111 % of control (dose: 4.0 mg/kg/injection, schedule: Q01DX005 (ip), vehicle: saline + alcohol); 108 % of control (dose: 8.0 mg/kg/injection, schedule: Q01DX005 (ip), vehicle: saline + alcohol).
As for `N#Cc1cnc(N)c(C#N)c1`, the T/C is, setting by setting: (dose: 25.0 mg/kg/injection, schedule: Q01DX009 (ip), vehicle: Klucel (hydroxypropylcellulose) (HPC)) 104 % of control; under setting [1], 104 % of control.
Take `CCCCCCCCCCCCCCCCOP(=O)(O)OCCCCCCCCCCCCCCCC`: the T/C runs as follows: (dose: 100.0 mg/kg/injection, schedule: Q04DX003 (ip), vehicle: saline with Tween-80) 88 % of control; (dose: 200.0 mg/kg/injection, schedule: Q04DX003 (ip), vehicle: saline with Tween-80) 90 % of control.
`O=c1cc(-c2ccccc2)c(N=Nc2ccccc2)c(S)n1-c1ccccc1`: the T/C is, setting by setting: under setting [10], 87 % of control; under setting [11], 88 % of control; under setting [12], 90 % of control.
With `C/C(CC(C)C(=O)O)=N/NC(N)=O` (stereo not drawn), the T/C runs as follows: under setting [4], 97 % of control; under setting [5], 97 % of control; under setting [6], 97 % of control.
For `CCCCCCCCCCCc1c(O)c(O)c(-c2ccccn2)c2nonc12`, the T/C is 106 % of control under setting [10], 103 % of control under setting [11] and 98 % of control under setting [12].
Turning to `CCCCCCCCCCCCCCCCS(=O)(=O)c1ccc(NN)cc1`, the T/C reads like this: under setting [2], 90 % of control; under setting [3], 89 % of control; (dose: 400.0 mg/kg/injection, schedule: Q01DX009 (ip), vehicle: Klucel (hydroxypropylcellulose) (HPC)) 87 % of control.
For the molecule `CCOC(=O)C(C(=O)COC)C(=O)OCC`, the T/C was 100 % of control (dose: 12.5 mg/kg/injection, schedule: Q01DX009 (ip), vehicle: water); 99 % of control (dose: 25.0 mg/kg/injection, schedule: Q01DX009 (ip), vehicle: water); 99 % of control (dose: 50.0 mg/kg/injection, schedule: Q01DX009 (ip), vehicle: water); 98 % of control (dose: 100.0 mg/kg/injection, schedule: Q01DX009 (ip), vehicle: water); 97 % of control (dose: 200.0 mg/kg/injection, schedule: Q01DX009 (ip), vehicle: water).
Take `COC(=O)c1ccc(SCC(=O)c2ccc([N+](=O)[O-])o2)cc1`: the T/C is, setting by setting: (dose: 50.0 mg/kg/injection, schedule: Q01DX009 (ip), vehicle: suspension in saline) 88 % of control; (dose: 100.0 mg/kg/injection, schedule: Q01DX009 (ip), vehicle: suspension in saline) 97 % of control.
With `O=C(CCCCCCCC(=O)Nc1ccc2[nH]c3ccccc3c(=O)c2c1)Nc1ccc2[nH]c3ccccc3c(=O)c2c1`, the T/C was 107 % of control under setting [10], 107 % of control under setting [11] and 106 % of control under setting [12].
As for `O=C/C=C/c1ccc2c(c1)OC(CO)C(c1ccc(O)c(O)c1)O2` (stereo not drawn), the T/C is 86 % of control (dose: 3.12 mg/kg/injection, schedule: Q01DX005 (ip), vehicle: Klucel (hydroxypropylcellulose) (HPC)) and 91 % of control (dose: 6.25 mg/kg/injection, schedule: Q01DX005 (ip), vehicle: Klucel (hydroxypropylcellulose) (HPC)).
For `Cc1ncccc1[N+](=O)[O-]`, the T/C is 100 % of control (dose: 12.5 mg/kg/injection, schedule: Q01DX009 (ip), vehicle: saline + Tween-80 + alcohol); 100 % of control (dose: 25.0 mg/kg/injection, schedule: Q01DX009 (ip), vehicle: saline + Tween-80 + alcohol); 106 % of control and 93 % of control (dose: 50.0 mg/kg/injection, schedule: Q01DX009 (ip), vehicle: saline + Tween-80 + alcohol).
Take `CC1=C(C(=O)/C=C/c2ccccc2)C(=O)c2ccccc2C1=O`: the T/C was 95 % of control under setting [10], 87 % of control under setting [11] and 105 % of control under setting [12].
With `CCC1CN2CCc3cc(OC)c(OC)cc3C2CC1(O)C#N` (stereo not drawn), the T/C by setting is: under setting [2], 99 % of control; under setting [3], 102 % of control.
Turning to `CN1C(=O)C2CC(=O)N(Cc3ccccc3)C(=O)C2C1=O` (stereo not drawn), the T/C was 96 % of control under setting [10], 87 % of control under setting [11] and 87 % of control under setting [12].
On to `Cc1onc(-c2c(F)cccc2Cl)c1C(=O)Oc1ccccc1`, for which the T/C was 100 % of control (dose: 30.0 mg/kg/injection, schedule: Q01DX005 (ip), vehicle: saline with Tween-80); 100 % of control under setting [13]; 103 % of control under setting [14]; 99 % of control under setting [15].
